Test system: Candida albicans ATCC 10231
Experiment: EPA MLB SOP MB-35-00 stainless steel carrier disinfection with ILPS (Example 5)
Assay type: cell-based

potassium salt of isomerized linoleic acid [ILCS]
growth on exposed carrier (1 minute exposure to ILPS, only exposure time of 8 to 1 minutes with growth): 158 CFU
kill (2 minutes exposure/immersion, carriers with 6-8 log yeast): 100%
colonies recovered from treated surfaces (undiluted ILPS, 10 minutes contact time, PBS controls 5.9 to 7.2 log10 CFU): no Candida albicans colonies

— patent US12611380B2, “Solution and method for reducing the virulence of viruses, bacteria, yeasts, or fungus” (priority 2020, dated 2026)
